Assay results: patent publication US9365556B2, “3,5-diaminopyrazole kinase inhibitors” (Axikin Pharmaceuticals, Inc., priority 2012, dated 2016)

Target: T1, kinase domain protein of RC kinase (Homo sapiens, UniProt Q56UN5)
T1 sequence (Q56UN5 1061-1324 limits assumed): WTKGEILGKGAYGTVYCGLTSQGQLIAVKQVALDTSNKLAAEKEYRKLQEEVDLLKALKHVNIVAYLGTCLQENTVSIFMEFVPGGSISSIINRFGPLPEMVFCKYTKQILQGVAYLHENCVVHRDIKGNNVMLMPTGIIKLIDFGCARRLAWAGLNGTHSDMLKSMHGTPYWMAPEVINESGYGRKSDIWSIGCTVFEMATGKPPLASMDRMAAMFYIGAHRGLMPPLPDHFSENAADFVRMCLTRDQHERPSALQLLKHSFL
Assay: Enzymatic assay for kinase inhibitory activity (Crebtide substrate, LANCE read-out)
Type: biochemical
Settings: compound at 1 μM
Experimental: Solutions of a test compound, Crebtide (a substrate), a kinase, and ATP were prepared using 1×MAPK Buffer (50 mM HEPES, 1 mM EGTA, […], 10 mM MgCl2, 2 mM DTT, and 0.01% Tween 20).
To each well, the test compound (1 μL) was first added (in duplicate) to reach a final concentration of 1 μM or 1×IC50 of the compound. The kinase (5 μl) was then added to each well to reach a final concentration of […] for the kinase domain or […] for the full-length domain. Each plate included a positive and negative controls in duplicate wells. Crebtide (2.5 μL) was then added to each well in duplicate to reach a final concentration of 50 nM. If the full-length kinase was used, the plates were incubated for 45 min at room temperature before proceeding further. ATP (2.5 μL) was added to each well to reach a final concentration of 1 μM for the kinase domain and 3 μM for the full-length.
After the addition of ATP, the plates were incubated for 45 min at room temperature. During the incubation, an EDTA solution (40 mM) and anti-Crebtide ([…]) were prepared. Additionally, a detection buffer stock solution was diluted ten fold before use.
After the incubation, the anti-Crebtide (5 μL) and EDTA (5 μL) were added to each well to reach their final concentrations of […] and 10 mM, respectively. The plates were allowed to develop at room temperature for 45 min. The plates were then read at 665 nm and 615 nm using Perkin Elmer Lance machine.
The biological results of inhibition of the kinase domain protein of RC kinase are summarized in Tables 2 and 3, wherein A represents at least 50% inhibition of the RC kinase activity at 1 μM; B represents no greater than 50% but at least 20% inhibition of the RC kinase activity at 1 μM; C represents no greater than 20% but at least 5% inhibition of the RC kinase activity at 1 μM; and D represents no greater than 5% inhibition of the RC kinase activity at 1 μM.

Row | inhibition at 1 µM [%] | SMILES | Activity (inhibition of the RC kinase activity) | further results
1 |  | N#Cc1c(Nc2ccccc2)n[nH]c1/N=C/c1ccc(C(F)(F)F)cc1 [Compound A18] | C (no greater than 20% but at least 5% inhibition of the RC kinase activity at 1 μM) | 
2 | ≤ 5 | NC(=O)c1c(Nc2cccc(Cl)c2)n[nH]c1/N=C/c1ncc(Cl)nc1Cl [Compound B78] |  | 
3 | 5 to 20 | NC(=O)c1c(Nc2cccc(Cl)c2)n[nH]c1/N=C/c1ccc(F)cc1O [Compound B83] |  | 
4 | 20 to 50 | Cn1nc(CSc2ccccc2)c(/C=N/c2[nH]nc(Nc3cccc(Cl)c3)c2C(N)=O)c1Cl [Compound B67] |  | 
5 |  | Cc1cc(/C=N/c2[nH]nc(Nc3cccc(Cl)c3)c2C#N)no1 [Compound B100] | C (no greater than 20% but at least 5% inhibition of the RC kinase activity at 1 μM) | 
6 |  | NC(=O)c1c(Nc2cccc(Cl)c2)n[nH]c1/N=C/c1cccnc1Cl [Compound B105] | C (no greater than 20% but at least 5% inhibition of the RC kinase activity at 1 μM) | 
7 | 20 to 50 | NC(=O)c1c(Nc2cccc(Cl)c2)n[nH]c1/N=C/c1cccn1S(=O)(=O)c1ccccc1 [Compound B71, 3-((3-chlorophenyl)amino)-5-(((1-(phenylsulfonyl)-1H-pyrrol-2-yl)methylene)amino)-1H-pyrazole-4-carboxamide] |  | 
8 | ≤ 5 | Cn1nc(C(F)(F)F)c(/C=N/c2[nH]nc(Nc3cccc(Cl)c3)c2C(N)=O)c1Cl [Compound B81] |  | 
9 |  | COc1ccc(Nc2n[nH]c(/N=C/c3ccc(Cl)cc3)c2C#N)cc1 [Compound A44] | D (no greater than 5% inhibition of the RC kinase activity at 1 μM) | 
10 | ≥ 50 | NC(=O)c1c(Nc2cccc(Cl)c2)n[nH]c1/N=C/c1cc[nH]c1 [Compound B111] |  | 
11 | 20 to 50 | NC(=O)c1c(Nc2cccc(Cl)c2)n[nH]c1/N=C/c1ccc(N2CCCC2)nc1 [Compound B66] |  | 
12 |  | NC(=O)c1c(Nc2cccc(Cl)c2)n[nH]c1/N=C/c1c(F)cccc1Cl [Compound B82] | D (no greater than 5% inhibition of the RC kinase activity at 1 μM) | 
13 |  | NC(=O)c1c(Nc2cccc(Cl)c2)n[nH]c1/N=C/C1CCNCC1 [Compound B96] | D (no greater than 5% inhibition of the RC kinase activity at 1 μM) | 
14 |  | Cn1c(Cl)c(/C=N/c2[nH]nc(Nc3cccc(Cl)c3)c2C(N)=O)c2ccccc21 [Compound B91] | D (no greater than 5% inhibition of the RC kinase activity at 1 μM) | 
15 |  | Cc1ncsc1/C=N/c1[nH]nc(Nc2cccc(Cl)c2)c1C#N [Compound A104] | D (no greater than 5% inhibition of the RC kinase activity at 1 μM) | 
16 |  | Cc1[nH]c2ccccc2c1/C=N/c1[nH]nc(Nc2cccc(Cl)c2)c1C(N)=O [Compound B69] | B (no greater than 50% but at least 20% inhibition of the RC kinase activity at 1 μM) | 
17 | ≥ 50 | NC(=O)c1c(Nc2cccc(Cl)c2)n[nH]c1/N=C/c1ccc(Oc2ncccn2)cc1 [Compound B64, 3-((3-chlorophenyl)amino)-5-((4-(pyrimidin-2-yloxy)benzylidene)amino)-1H-pyrazole-4-carboxamide] |  | 
18 |  | COc1cc(/C=N/c2[nH]nc(Nc3ccc(Cl)cc3)c2C(N)=O)ccc1O [Compound B32] | A (at least 50% inhibition of the RC kinase activity at 1 μM) | 
19 |  | NC(=O)c1c(Nc2cccc(Cl)c2)n[nH]c1/N=C/c1ccc[nH]1 [Compound B17] | B (no greater than 50% but at least 20% inhibition of the RC kinase activity at 1 μM) | 
20 | 20 to 50 | NC(=O)c1c(Nc2cccc(Cl)c2)n[nH]c1/N=C/c1ccccc1-c1cccs1 [Compound B65] |  | 

Row | inhibition at 1 µM [%] | SMILES | Activity (inhibition of the RC kinase activity) | further results
21 | 5 to 20 | NC(=O)c1c(Nc2cccc(Cl)c2)n[nH]c1/N=C/c1ccc(N2CCOCC2)nc1 [Compound B101] |  | 
22 |  | N#Cc1c(Nc2cccc(Cl)c2)n[nH]c1/N=C/c1ccc[nH]1 [Compound A27] | C (no greater than 20% but at least 5% inhibition of the RC kinase activity at 1 μM) | 
23 |  | NC(=O)c1c(Nc2cccc(Cl)c2)n[nH]c1/N=C/c1cc(F)cc2c1OCOC2 [Compound B29] | D (no greater than 5% inhibition of the RC kinase activity at 1 μM) | 
24 |  | NC(=O)c1c(Nc2cccc(Cl)c2)n[nH]c1/N=C/c1nc(-c2ccccc2)[nH]c1Cl [Compound B72] | B (no greater than 50% but at least 20% inhibition of the RC kinase activity at 1 μM) | 
25 | ≤ 5 | NC(=O)c1c(Nc2cccc(Cl)c2)n[nH]c1/N=C/c1cnccn1 [Compound B80] |  | 
26 |  | COc1cc(/C=N/c2[nH]nc(Nc3cccc(Cl)c3)c2C#N)ccc1O [Compound A17] | B (no greater than 50% but at least 20% inhibition of the RC kinase activity at 1 μM) | 
27 |  | NC(=O)c1c(Nc2cccc(Cl)c2)n[nH]c1/N=C/c1ccc(Cl)cc1Cl [Compound B93] | D (no greater than 5% inhibition of the RC kinase activity at 1 μM) | 
28 |  | N#Cc1c(Nc2cccc(Cl)c2)n[nH]c1/N=C/c1cccs1 [Compound A105] | D (no greater than 5% inhibition of the RC kinase activity at 1 μM) | 
29 | 5 to 20 | Cc1cc(C)cc(Nc2n[nH]c(/N=C/c3ccc(O)cc3)c2C#N)c1 [Compound A55] |  | 
30 |  | NC(=O)c1c(Nc2cccc(Cl)c2)n[nH]c1/N=C/c1cc([N+](=O)[O-])ccc1O [Compound B51] | C (no greater than 20% but at least 5% inhibition of the RC kinase activity at 1 μM) | 
31 |  | COc1ccc(/C=N/c2[nH]nc(NC3CCCCC3)c2C#N)cc1 [Compound A50] | D (no greater than 5% inhibition of the RC kinase activity at 1 μM) | 
32 |  | NC(=O)c1c(Nc2cccc(Cl)c2)n[nH]c1/N=C/c1ccc(-c2ccc(Cl)cc2)o1 [Compound B73] | B (no greater than 50% but at least 20% inhibition of the RC kinase activity at 1 μM) | 
33 | ≤ 5 | NC(=O)c1c(Nc2cccc(Cl)c2)n[nH]c1/N=C/c1ncccc1F [Compound B88] |  | 
34 | ≤ 5 | CS(=O)(=O)c1ccc(/C=N/c2[nH]nc(Nc3cccc(Cl)c3)c2C(N)=O)cc1 [Compound B92, 3-((3-chlorophenyl)amino)-5-((4-(methylsulfonyl)benzylidene)amino)-1H-pyrazole-4-carboxamide] |  | 
35 |  | NC(=O)c1c(Nc2cccc(Cl)c2)n[nH]c1/N=C/c1ccc(Oc2ncccn2)cc1 [Compound B123] |  | Activity (inhibition of the RC kinase activity) (1 µM): B (no greater than 50% but at least 20% inhibition of the RC kinase activity at 1 μM)
36 |  | N#Cc1c(Nc2cccc(Cl)c2)n[nH]c1/N=C/c1c(O)cccc1Cl [Compound A92] | D (no greater than 5% inhibition of the RC kinase activity at 1 μM) | 
37 |  | COc1ccc(/C=N/c2[nH]nc(Nc3ccccc3)c2C#N)cc1 [Compound A6] | B (no greater than 50% but at least 20% inhibition of the RC kinase activity at 1 μM) | 
38 |  | COc1cc(/C=N/c2[nH]nc(Nc3cccc(Cl)c3)c2C#N)cc(O)c1OC [Compound A85] | C (no greater than 20% but at least 5% inhibition of the RC kinase activity at 1 μM) | 
39 |  | N#Cc1c(NC2CCCCC2)n[nH]c1/N=C/c1ccccc1 [Compound A51] | D (no greater than 5% inhibition of the RC kinase activity at 1 μM) | 
